From publication PMC5910032 (ACS synthetic biology, 2018)

How the values were obtained:
Type in all cases: binding
FITC-E2 scFv VH W118G [1] = assay: SPR inhibition in solution assay
FITC-E2 scFv (wild-type) = assay: fluorescein fluorescence quenching, titration of purified scFv
FITC-E2 scFv VH W118G [2] = assay: dose-dependent rescue of fluorescein quenching

SMILES	IC50 (FITC-E2 scFv VH W118G [1])	EC50 (FITC-E2 scFv (wild-type))	EC50 (FITC-E2 scFv VH W118G [2])
O=C1OC2(c3ccc(O)cc3Oc3cc(O)ccc32)c2ccccc21 [fluorescein]	0.296 µM	0.023 to 0.027 µM	–
c1ccc2[nH]ccc2c1 [indole]	–	–	220 µM
